What was measured:
[1] = system: DHL5 diffuse large B-cell lymphoma (DLBCL) cells; experiment: DHL5 cell viability assay (CellTiter-Glo); assay type: cell-based; conditions: for cell viability: single agent, 24 hours
[2] = system: BCL-XL-dependent leukemia cell line; experiment: Caspase 3/7 and cell death in BCL-XL-dependent leukemia cell line; assay type: cell-based
[3] = system: MCL-1 dependent leukemia cell line; experiment: Caspase 3/7 and cell death in isogenic MCL-1 dependent leukemia cell line; assay type: cell-based
[4] = target: T1, recombinant full-length BAX (Homo sapiens, UniProt Q07812); experiment: Competitive fluorescence polarization assay: displacement of FITC-BIM SAHB from BAX; assay type: binding; conditions: positive control
T1 construct: Recombinant and tagless full-length BAX; made in house; host or cells: Escherichia coli BL21 (DE3)
Description: BCL-2 family protein production. Recombinant and tagless full-length BAX, BCL-XLΔC, MCL-1ΔNΔC, and BFL-1/A1ΔC were expressed and purified as previously reported^17,35. Transformed Escherichia coli BL21 (DE3) were cultured in ampicillin-containing Luria Broth and protein expression was induced with 0.5 mM isopropyl β-D-1-thiogalactopyranoside (IPTG). The bacterial pellets were resuspended in buffer (250 mM NaCl, 20 mM Tris, complete protease inhibitor tablet, pH 7.2), sonicated, and after centrifugation at 45,000×g for 45 min, the supernatants were applied to glutathione-agarose columns (Sigma) for GST-BCL-XLΔC, MCL-1ΔNΔC, and BFL-1/A1ΔC, or a chitin column (BioLabs) for Intein-BAX. On-bead digestion of GST-tagged protein was accomplished by overnight incubation at room temperature in the presence of thrombin (75 units) in PBS (3 mL), whereas the intein tag was cleaved from BAX by overnight incubation of the chitin beads at 4° C. with 50 mM DTT. BCL-XLΔC, MCL-1ΔNΔC, and BFL-1/A1ΔC were purified by size exclusion chromatography (SEC) using 150 mM NaCl, 50 mM Tris, pH 7.4 buffer conditions, and full-length monomeric BAX protein isolated by SEC using a Superdex-75 column (GE Healthcare) and 20 mM Hepes pH 7.2, 150 mM KCl buffer conditions.
(§1) Fluorescence polarization binding assays. Fluorescence polarization assays (FPA) were performed as previously described^35,36.

BCL-XL = target: T2, BCL-XL (Homo sapiens, UniProt Q07817); experiment: Competitive FPA with FITC-BIM SAHB and BCL-XL; assay type: binding
T2 construct: serial dilutions of full-length BAX, BCL-XLΔC, MCL-1ΔNΔC, or BFL-1/A1ΔC; GST (N, cleaved yes); made in house; host or cells: Escherichia coli BL21 (DE3)
Text: (§2) The BH3 binding pocket of anti-apoptotic targets shares topographic similarities with the BH3 trigger site on BAX, including a hydrophobic groove that engages the hydrophobic face of BH3 helices and a perimeter of similarly oriented charged and polar residues that are complementary to discrete residues of the hydrophilic BH3 interface. The two BH3 binding sites differ in their geographic location, pocket depth, and functionality.
(§3) BCL-2 family protein production. Recombinant and tagless full-length BAX, BCL-XLΔC, MCL-1ΔNΔC, and BFL-1/A1ΔC were expressed and purified as previously reported^17,35. Transformed Escherichia coli BL21 (DE3) were cultured in ampicillin-containing Luria Broth and protein expression was induced with 0.5 mM isopropyl β-D-1-thiogalactopyranoside (IPTG). The bacterial pellets were resuspended in buffer (250 mM NaCl, 20 mM Tris, complete protease inhibitor tablet, pH 7.2), sonicated, and after centrifugation at 45,000×g for 45 min, the supernatants were applied to glutathione-agarose columns (Sigma) for GST-BCL-XLΔC, MCL-1ΔNΔC, and BFL-1/A1ΔC, or a chitin column (BioLabs) for Intein-BAX. […]
as §1

MCL-1 = target: T3, MCL-1 (Homo sapiens, UniProt Q07820); experiment: Competitive FPA with FITC-BIM SAHB and MCL-1; assay type: binding
T3 construct: serial dilutions of full-length BAX, BCL-XLΔC, MCL-1ΔNΔC, or BFL-1/A1ΔC; GST (N, cleaved yes); made in house; host or cells: Escherichia coli BL21 (DE3)
Text: as §2, §3, §1

BFL-1/A1 = target: T4, BFL-1/A1 (Homo sapiens, UniProt Q16548); experiment: Competitive FPA with FITC-BIM SAHB and BFL-1/A1; assay type: binding
T4 construct: serial dilutions of full-length BAX, BCL-XLΔC, MCL-1ΔNΔC, or BFL-1/A1ΔC; GST (N, cleaved yes); made in house; host or cells: Escherichia coli BL21 (DE3)
T4 sequence (Q16548 1-151 limits assumed): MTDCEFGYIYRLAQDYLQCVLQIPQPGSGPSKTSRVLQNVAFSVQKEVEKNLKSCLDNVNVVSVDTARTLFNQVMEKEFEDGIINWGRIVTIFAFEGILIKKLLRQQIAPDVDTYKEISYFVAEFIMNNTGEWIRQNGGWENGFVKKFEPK
Text: as §2, §3, §1

Bak−/− MEFs [5] = experiment: Cell viability assay in Bak-/- MEFs (CellTiter-Glo); assay type: cell-based, mouse; conditions: Bak−/− MEFs (express only BAX), 24 hours
Bax−/−Bak−/− MEFs = experiment: Cell viability assay in Bax-/-Bak-/- MEFs (CellTiter-Glo); assay type: cell-based, mouse; conditions: 24 hours
Bak−/− MEFs [6] = experiment: Light microscopy (live cell imaging) of Bak-/- MEFs; assay type: cell-based, mouse; conditions: BAM7 15 μM, time lapse
Description: Light microscopy. MEFs (5,000 cells/well) were plated for 24 hours on glass bottom culture dishes (MatTek Corp., MA) and then incubated with BAM7 (15 μM) or vehicle (0.15% DMSO). Live cell imaging was performed using a TE2000-E2 Nikon microscopy equipped with a temperature and CO2-controlled chamber that maintained an atmosphere of 3-5% humidified CO2 at 37° C. A Hamamatsu Orca ER digital CCD camera was used to capture images at 20× magnification for 24 hours at 20 min intervals. Acquisition, hardware control, and image analysis was performed using Nikon NIS-Elements software.

leukemia cells = experiment: Leukemia cell viability (anti-leukemic activity); assay type: cell-based; conditions: FIGS. 15-17

T3 sequence (Q07820 170-327 limits assumed, species assumed): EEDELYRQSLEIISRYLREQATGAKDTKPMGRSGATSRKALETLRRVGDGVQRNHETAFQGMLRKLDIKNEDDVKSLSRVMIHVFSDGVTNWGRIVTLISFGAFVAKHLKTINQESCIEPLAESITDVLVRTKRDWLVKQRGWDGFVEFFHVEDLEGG
T2 sequence (Q07817 1-212 limits assumed, species assumed): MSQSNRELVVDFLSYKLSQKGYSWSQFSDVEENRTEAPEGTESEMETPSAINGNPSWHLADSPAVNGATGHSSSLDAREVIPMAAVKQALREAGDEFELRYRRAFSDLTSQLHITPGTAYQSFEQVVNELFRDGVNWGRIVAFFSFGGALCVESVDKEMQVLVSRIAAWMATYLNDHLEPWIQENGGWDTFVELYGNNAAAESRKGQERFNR
T1 sequence (Q07812 whole entry): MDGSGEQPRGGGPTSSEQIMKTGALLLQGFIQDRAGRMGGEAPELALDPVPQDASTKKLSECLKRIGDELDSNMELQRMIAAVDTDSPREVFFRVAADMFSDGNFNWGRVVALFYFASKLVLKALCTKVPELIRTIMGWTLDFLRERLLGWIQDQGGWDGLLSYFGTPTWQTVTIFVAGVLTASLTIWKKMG

CN(C)CC[C@H](CSc1ccccc1)Nc1ccc(S(=O)(=O)NC(=O)c2ccc(N3CCN(Cc4ccccc4-c4ccc(Cl)cc4)CC3)cc2)cc1[N+](=O)[O-] [ABT-737, reference compound]
cell viability [1]: relatively resistant | effect of added ABT-737 on the response to BAM7 ([1]; subcytotoxic dose of ABT-737 added to BAM7): further sensitized the cells to BAM7 | cell death [2]: induces cell death | cell death [3]: significant resistance

CC[C@H](C)[C@H](NC(C)=O)C(=O)N[C@@H](Cc1c[nH]c2ccccc12)C(=O)N[C@H](C(=O)N[C@@H](C)C(=O)N[C@@H](CCC(N)=O)C(=O)N[C@@H](CCC(=O)O)C(=O)N[C@@H](CC(C)C)C(=O)N[C@@H](CCCNC(=N)N)C(=O)N[C@@]1(C)CCCC=CCCC[C@@](C)(C(=O)N[C@@H](Cc2ccccc2)C(=O)N[C@@H](CC(N)=O)C(=O)N[C@@H](C)C(=O)N[C@@H](Cc2ccc(O)cc2)C(=O)N[C@@H](Cc2ccc(O)cc2)C(=O)N[C@@H](C)C(=O)N[C@@H](CCCNC(=N)N)C(=O)N[C@@H](CCCNC(=N)N)C(N)=O)NC(=O)[C@H](CC(=O)O)NC(=O)CNC(=O)[C@H]([C@@H](C)CC)NC1=O)[C@@H](C)CC [Ac-BIM SAHB, reference compound]
IC50 [4]: 0.314 µM | IC50 (BCL-XL; competitive FPA, read-out: IC50, competition with FITC-BIM SAHB for binding to BCL-XL): 0.572 µM | IC50 (MCL-1; competitive FPA, read-out: IC50, competition with FITC-BIM SAHB for binding to MCL-1): 0.136 µM | IC50 (BFL-1/A1; competitive FPA, read-out: IC50, competition with FITC-BIM SAHB for binding to BFL-1/A1): 0.603 µM

CCOc1ccccc1NN=C1C(=O)N(c2nc(-c3ccccc3)cs2)N=C1C [BAM7, 4-(2-(2-ethoxyphenyl)hydrazono)-3-methyl-1-(4-phenylthiazol-2-yl)-1H-pyrazol-5(4H)-one]
competition with FITC-BIM SAHB for BCL-XL (in words) (BCL-XL; up to 50 μM dosing): little to no anti-apoptotic binding interactions | competition with FITC-BIM SAHB for MCL-1 (in words) (MCL-1; up to 50 μM dosing): little to no anti-apoptotic binding interactions | competition with FITC-BIM SAHB for BFL-1/A1 (in words) (BFL-1/A1; up to 50 μM dosing): little to no anti-apoptotic binding interactions | cell viability (Bak−/− MEFs [5]): dose-responsively impaired the viability | cell viability (Bax−/−Bak−/− MEFs): did not affect the viability | morphologic features of apoptosis (Bak−/− MEFs [6]): characteristic microscopic features of apoptosis | effect of BAM7 on the response to ABT-737 ([1]; BAM7 10 μM plus ABT-737): sensitized DHL5 cells to ABT-737 | cell viability [1]: dose-responsive impairment of cell viability | anti-leukemic activity (leukemia cells): anti-leukemic activity

Reference: patent US11358960B2, “Pyrazol-3-ones that activate pro-apoptotic BAX” (Dana-Farber Cancer Institute, Inc., priority 2011, dated 2022)
